Reference: US4175125A, “Method for treating methicillin resistant staphylococcus aureus” (Eli Lilly and Company, priority 1978, dated 1979)

How the values were obtained:
[1] = test system: Streptococcus pyogenes C203; assay: MIC in broth against Streptococcus pyogenes C203; type: cell-based
Experimental: The MIC for the compound of Example 13 against Streptococcus pyogenes C203 in broth was 0.008 μg/ml.

[2] = test system: Staphylococcus aureus cultures; assay: Agar dilution MIC, Example 13 compound vs methicillin resistant Staphylococcus aureus; type: cell-based
Excerpt: The table which follows gives the minimum inhibitory concentration (MIC) in micrograms of compound per milliliter of culture (μg/ml), in comparison with similar MIC values for the known antibiotics methicillin, cephalothin and cephaloridine against the same strains of bacteria.

[3] = physchem; details: water
[4] = test system: S. typhosa SA12; assay: In vitro MIC in agar, additional microorganisms; type: cell-based
[5] = test system: C. ulmi; assay: In vitro MIC in agar, additional microorganisms; type: cell-based
Excerpt: (§1) The compound of Example 13 gave the following in vitro minimum inhibitory concentrations (MIC values), in microgram/milliliter of agar (μg/ml.) against the following additional microorganisms

[6] = test system: E. coli EC14; assay: In vitro MIC in agar, additional microorganisms; type: cell-based; details: Escherichia coli
Excerpt: as §1

[7] = test system: H. pneumoniae KL14; assay: In vitro MIC in agar, additional microorganisms; type: cell-based; details: Klebsiella pneumoniae
Excerpt: as §1

[8] = test system: S. facalis X66; assay: In vitro MIC in agar, additional microorganisms; type: cell-based
Excerpt: as §1

[9] = test system: T. mentagrophytes 27; assay: In vitro MIC in agar, additional microorganisms; type: cell-based; details: Trichophyton mentagrophytes
Excerpt: as §1

[10] = test system: E. aerogenes EB17; assay: In vitro MIC in agar, additional microorganisms; type: cell-based; details: Klebsiella aerogenes
Excerpt: as §1

[11] = test system: E. amylovora; assay: In vitro MIC in agar, additional microorganisms; type: cell-based; details: Erwinia amylovora
Excerpt: as §1

[12] = test system: C. freundii CF17; assay: In vitro MIC in agar, additional microorganisms; type: cell-based; details: Citrobacter freundii
Excerpt: as §1

[13] = test system: A. flavus; assay: In vitro MIC in agar, additional microorganisms; type: cell-based; details: Aspergillus flavus
Excerpt: as §1

[14] = test system: P. aeroginosa X239; assay: In vitro MIC in agar, additional microorganisms; type: cell-based
Excerpt: as §1

[15] = test system: P. morganii, indole positive; assay: In vitro MIC in agar, additional microorganisms; type: cell-based; details: Morganella morganii
Excerpt: as §1

[16] = test system: P. solenaecarum X185; assay: In vitro MIC in agar, additional microorganisms; type: cell-based
Excerpt: as §1

[17] = test system: S. marcescens SE3; assay: In vitro MIC in agar, additional microorganisms; type: cell-based; details: Serratia marcescens
Excerpt: as §1

[18] = test system: B. bronchiseptica; assay: In vitro MIC in agar, additional microorganisms; type: cell-based; details: Bordetella bronchiseptica
Excerpt: as §1

[19] = test system: S. aureus; assay: In vitro MIC in agar, additional microorganisms; type: cell-based; details: Staphylococcus aureus
Excerpt: as §1

[20] = test system: C. tropicalis A17; assay: In vitro MIC in agar, additional microorganisms; type: cell-based; details: Candida tropicalis
Excerpt: as §1

[21] = test system: S. typhimurium; assay: In vitro MIC in agar, additional microorganisms; type: cell-based; details: Salmonella enterica
Excerpt: as §1

[22] = water

Structure (SMILES): Cc1nnc(SCC2=C(C(=O)[O-])N3C(=O)C(NC(=O)CSc4ccc(F)c(Cl)c4)[C@H]3SC2)s1.[Na+] (stereo partly shown)
- MIC [1]: 0.008 µg/mL
- MIC ([2]; culture 3055 (control), Trypticase Soy Agar with 4.5% NaCl added (5% NaCl)): 0.03 µg/mL
- MIC ([2]; culture 3055 (control), Trypticase Soy Agar, 0.5% NaCl): 0.03 µg/mL
- MIC ([2]; culture 3130, Trypticase Soy Agar with 4.5% NaCl added (5% NaCl)): 0.25 µg/mL
- MIC ([2]; culture 3130, Trypticase Soy Agar, 0.5% NaCl): 0.5 µg/mL
- MIC ([2]; culture 3131, Trypticase Soy Agar with 4.5% NaCl added (5% NaCl)): 0.25 µg/mL
- MIC ([2]; culture 3131, Trypticase Soy Agar, 0.5% NaCl): 0.25 µg/mL
- MIC ([2]; culture 3132, Trypticase Soy Agar with 4.5% NaCl added (5% NaCl)): 0.13 µg/mL
- MIC ([2]; culture 3132, Trypticase Soy Agar, 0.5% NaCl): 0.13 µg/mL
- MIC ([2]; culture 3133, Trypticase Soy Agar with 4.5% NaCl added (5% NaCl)): 0.13 µg/mL
- MIC ([2]; culture 3133, Trypticase Soy Agar, 0.5% NaCl): 0.13 µg/mL
- MIC ([2]; culture 3134, Trypticase Soy Agar with 4.5% NaCl added (5% NaCl)): 0.25 µg/mL
- MIC ([2]; culture 3134, Trypticase Soy Agar, 0.5% NaCl): 1 µg/mL
- MIC ([2]; culture 3135, Trypticase Soy Agar with 4.5% NaCl added (5% NaCl)): 0.5 µg/mL
- MIC ([2]; culture 3135, Trypticase Soy Agar, 0.5% NaCl): 0.5 µg/mL
- MIC ([2]; culture 3136, Trypticase Soy Agar with 4.5% NaCl added (5% NaCl)): 0.5 µg/mL
- MIC ([2]; culture 3136, Trypticase Soy Agar, 0.5% NaCl): 0.25 µg/mL
- MIC ([2]; culture 3137, Trypticase Soy Agar with 4.5% NaCl added (5% NaCl)): 1 µg/mL
- MIC ([2]; culture 3137, Trypticase Soy Agar, 0.5% NaCl): 1 µg/mL
- MIC ([2]; culture 3138, Trypticase Soy Agar with 4.5% NaCl added (5% NaCl)): 0.5 µg/mL
- MIC ([2]; culture 3138, Trypticase Soy Agar, 0.5% NaCl): 1 µg/mL
- MIC ([2]; culture 3139, Trypticase Soy Agar with 4.5% NaCl added (5% NaCl)): 0.03 µg/mL
- MIC ([2]; culture 3139, Trypticase Soy Agar, 0.5% NaCl): 0.25 µg/mL
- MIC ([2]; culture H232 (control), Trypticase Soy Agar with 4.5% NaCl added (5% NaCl)): 0.06 µg/mL
- MIC ([2]; culture H232 (control), Trypticase Soy Agar, 0.5% NaCl): 0.06 µg/mL
- MIC ([2]; culture Havarmak 1136501, Trypticase Soy Agar with 4.5% NaCl added (5% NaCl)): 1 µg/mL
- MIC ([2]; culture Havarmak 1136501, Trypticase Soy Agar, 0.5% NaCl): 0.5 µg/mL
- MIC ([2]; culture S 61, Trypticase Soy Agar with 4.5% NaCl added (5% NaCl)): 0.5 µg/mL
- MIC ([2]; culture S 61, Trypticase Soy Agar, 0.5% NaCl): 0.5 µg/mL
- MIC ([2]; culture Seattle 966, Trypticase Soy Agar with 4.5% NaCl added (5% NaCl)): 0.06 µg/mL
- MIC ([2]; culture Seattle 966, Trypticase Soy Agar, 0.5% NaCl): 0.25 µg/mL
- solubility [3]: > 100 mg/mL
- MIC [4]: 32 µg/mL
- MIC [5]: > 128 µg/mL
- MIC [6]: 64 µg/mL
- MIC [7]: 64 µg/mL
- MIC [8]: 400 µg/mL
- MIC [9]: > 128 µg/mL
- MIC [10]: 128 µg/mL
- MIC [11]: 64 µg/mL
- MIC [12]: > 128 µg/mL
- MIC [13]: > 128 µg/mL
- MIC [14]: > 128 µg/mL
- MIC [15]: > 128 µg/mL
- MIC [16]: > 128 µg/mL
- MIC [17]: > 128 µg/mL
- MIC [18]: > 128 µg/mL
- MIC ([19]; S. aureus 3055 (penicillin G susceptible)): 0.031 µg/mL
- MIC ([19]; S. aureus 3074 (Pen G. resist.)): 0.062 µg/mL
- MIC [20]: > 128 µg/mL
- MIC [21]: 128 µg/mL
- solubility upon warming (in words) [22]: increases
